According to ChEMBL document CHEMBL3352057, “Novel fluorinated pyrrolo[1,2-a]pyrazine-2,6-dione derivatives: synthesis and anticonvulsant evaluation in animal models of epilepsy” (Bioorg Med Chem, 2014):

System: Rattus norvegicus
Assay: Anticonvulsant activity in ip dosed Sprague-Dawley rat assessed as protection against maximal electroshock-induced seizures measured as time to peak effect
Format: functional
Conditions: not given

**Q.** Which Time does the source give for `O=C1NC(=O)C(c2ccccc2)(c2ccccc2)N1` [PHENYTOIN] here?
**A.** Its Time is 0.25 h.

System: Rattus norvegicus
Assay: Anticonvulsant activity in ip dosed Sprague-Dawley rat assessed as protection against subcutaneous metrazol-induced seizures
Format: functional
Conditions: not given

**Q.** With `O=C1NC(=O)C(c2ccccc2)(c2ccccc2)N1` [PHENYTOIN] as the compound, how does the ED50 read?
**A.** The ED50 was > 430 µmol/kg.

System: Mus musculus
Assay: Anticonvulsant activity in ip dosed albino CF1 mouse assessed as protection against subcutaneous metrazol-induced seizures
Format: functional
Conditions: not given

**Q.** Which ED50 does the source give for `CCC1(c2ccccc2)C(=O)NC(=O)NC1=O` [PHENOBARBITAL] here?
**A.** Its ED50 is 57 µmol/kg.

System: not listed separately
Assay: Neurotoxicity in ip dosed Sprague-Dawley rat
Format: toxicity, organism-based
Conditions: in vivo

**Q.** Which TD50 does the source give for `O=C1NC(=O)C(c2ccccc2)(c2ccccc2)N1` [PHENYTOIN] here?
**A.** Its TD50 is 66 µmol/kg.

System: Rattus norvegicus
Assay: Anticonvulsant activity in ip dosed Sprague-Dawley rat assessed as protection against maximal electroshock-induced seizures
Format: functional
Conditions: not given

**Q.** Which ED50 does the source give for `O=C1NC(=O)C(c2ccccc2)(c2ccccc2)N1` [PHENYTOIN] here?
**A.** The ED50 was 10 µmol/kg.

System: Mus musculus
Assay: Anticonvulsant activity in ip dosed albino CF1 mouse assessed as protection against maximal electroshock-induced seizures measured as time to peak effect
Format: functional
Conditions: not given

**Q.** For `CCC1(c2ccccc2)C(=O)NC(=O)NC1=O` [PHENOBARBITAL], which Time is on record?
**A.** The Time was 1 h.

System: Mus musculus
Assay: Anticonvulsant activity in ip dosed albino CF1 mouse assessed as protection against maximal electroshock-induced seizures
Format: functional
Conditions: not given

**Q.** For `CCC1(c2ccccc2)C(=O)NC(=O)NC1=O` [PHENOBARBITAL], which ED50 is on record?
**A.** The ED50 was 94 µmol/kg.

System: not listed separately
Assay: Neurotoxicity in ip dosed albino CF1 mouse
Format: toxicity, organism-based
Conditions: in vivo

**Q.** With `CCC1(c2ccccc2)C(=O)NC(=O)NC1=O` [PHENOBARBITAL] as the compound, how does the TD50 read?
**A.** Its TD50 is 297 µmol/kg.

System: not listed separately
Assay: Protective index, ratio of TD50 for neurotoxicity in ip dosed Sprague-Dawley rat to ED50 for anticonvulsant activity in ip dosed MES Sprague-Dawley rat model
Format: toxicity, organism-based
Conditions: in vivo, read-out: Ratio TD50/ED50

**Q.** Which selectivity ratio does the source give for `O=C1NC(=O)C(c2ccccc2)(c2ccccc2)N1` [PHENYTOIN] here?
**A.** The selectivity ratio was 6.4.
